Experimental data taken from paper PMC10799085, “A miniaturized mode-of-action profiling platform enables high throughput characterization of the molecular and cellular dynamics of EZH2 inhibition” (Scientific Reports, 2024).
Read-outs that look alike come from different tables or passages of the source. One block for each compound: values may come before it.

Tests used:
PRC2/EZH2Y641N = target: T1, PRC2/EZH2Y641N (Homo sapiens, UniProt Q15910, Y641N); assay: Equilibrium probe competition assay (ePCA), TR-FRET; format: binding
T1 construct: Synthetic cDNA encoding N-terminal 6His-tagged full length EZH2^Y641N; 6His (N); made in house; host or cells: Sf9 insect cells (baculovirus co-infection)

EZH2 = tested on: EZH2; design: method as in Konze et al. [41]; settings: 40-fold higher enzyme concentration; ref Konze et al. [41]; cited from earlier work
PRC2/EZH2+/+ [1] = target: T2, PRC2/EZH2+/+ (Homo sapiens, UniProt Q15910); assay: Transition state thermodynamics (Eyring analysis of kPCA at 5-37 °C); format: binding; settings: Kinetic (Eyre); for Enthalpic Efficiency (kon): association; for Enthalpic Efficiency (koff): dissociation
T2 construct: purchased Active Motif
Experimental: (§1) For thermodynamic analysis of the binding to EZH2+/+ the probe characterization, equilibrium and kinetic probe competition assays described above (previously conducted at 25 °C) were performed at 5, 15, 30 and 37 °C. […] For measurements at 25, 30 and 37 °C, the temperature control functionality of the instrument was used.
For Eyring transition state analysis, changes in the activation entropy ΔS^# and enthalpy ΔH^# were estimated by Eyring analysis using linear regression of. lnkh/kBT=ΔS^#/R-ΔH^#/(RT).
To consider the possible temperature dependence, the activation entropy and enthalpy were obtained along with the activation heat capacity ΔC^#p by nonlinear regression using. lnkh/kBT=-ΔH^#T^∘/RT+ΔS^#T^∘/R+ΔCp#/R[T-T^∘/T-lnT/T^∘],

PRC2/EZH1 = target: T3, PRC2/EZH1 (Homo sapiens, UniProt Q92800); assay: Scintillation proximity assay (SPA) of H3K27 methylation; format: biochemical
T3 construct: N-terminal 6His-tagged full length EZH2^Y641N, EZH2^Y111L, EZH2^Y111D, EZH2^Y641N, Y661DEZH2, EZH1; 6His (N); made in house; host or cells: Sf9 insect cells (baculovirus co-infection)

PRC2/EZH2+/+ [2] = target: T2, PRC2/EZH2+/+; assay: Equilibrium binding thermodynamics (van't Hoff analysis of ePCA/kPCA at 5-37 °C); settings: ePCA at 5-37 °C, wild type EZH2
Experimental: as §1
Equilibrium and kinetic binding constants obtained at various temperatures were used to determine the thermodynamic parameters by van’t Hoff and Eyring analysis, as described elsewhere for SPR and radioligand binding experiments[46],[69]. For the van’t Hoff thermodynamic analysis, changes in entropy ΔS° and enthalpy ΔH° were estimated by linear regression using the van’t Hoff equation. lnKA=ΔS^∘/R-ΔH^∘/RT,
Changes in Gibb’s free energy ΔG° were calculated according to. ΔG^∘T=ΔH^∘-T×ΔS^∘
Additionally, the possible temperature dependence of the thermodynamic parameters was considered using the integrated form of the van’t Hoff equation[47] for nonlinear regression to yield the changes in entropy, enthalpy, and heat capacity ΔCp: ln KA=-ΔH^∘T^∘/RT+ΔS^∘T^∘/R+ΔCp/R[T-T^∘/T-lnT/T^∘],

[3] = tested on: H3K27me3 mark in MDA-MB-231 cells; assay: High content analysis (HCA) of cellular H3K27me3 mark, washout format; format: cell-based; settings: for IC50: Homo sapiens, MDA-MB-231, read-out: Mean IC50 (M), H3K27 methylation HCA
Experimental: In the low- and high-signal control wells, test compounds were replaced by 10 µM of EZH2 inhibitor (equal to unlabeled probe from ePCA and kPCA) or DMSO, respectively. […] After fixation, the cells were washed with PBS and incubated with 1% BSA blocking solution at RT for 1 h. Blocking solution was discarded, primary monoclonal antibody rabbit Tri-methyl-histone H3K27 (C36B11, Cell signaling) diluted 1:200 in blocking solution was added and incubated overnight at 4 °C. […] Afterwards, cells were washed three times with PBS and incubated at 4 °C until measuring. Fluorescence signals were captured by an Opera Phenix™ High Content Screening (HCA) system (Perkin Elmer) by 10× magnification. […] Microscopy images were initially visualized and preprocessed with MetaXpress High Content Image Acquisition & Analysis Software (Molecular Devices) as previously described. Raw data import, normalization, quality control and fitting curves for IC50 determination of tested compounds were done with Genedata Screener® for high-content screening. Wells with no recognizable signals were masked and the average intensity of the trimethylation signal was normalized to the DMSO control (0%).

[4] = EZH2Y641N (+ H3K27me3), equilibrium, RT sheet
[5] = EZH2Y641N (- H3K27me3), sheet ePCA&kPCA RT

- Ki (PRC2/EZH2Y641N; [4]): 6.65 nM
- Ki (PRC2/EZH2Y641N; [5]): 26.5 nM
Compound: CCCc1cc(C)[nH]c(=O)c1CNC(=O)c1cc(-c2ccc(N3CCN(C(C)C)CC3)nc2)cc2c1cnn2C(C)C [Compound 9, UNC1999]
- IC50 (EZH2): 10 nM

Compound: Cc1cc(C)c(CN2CCc3c(Cl)cc(-c4c(C)noc4C)c(Cl)c3C2=O)c(=O)[nH]1 [Compound 14]
- Enthalpic Efficiency (kon) (PRC2/EZH2+/+ [1]; EZH2+/+ (Linear Fit)): 1.3 kcal/mol
- Enthalpic Efficiency (koff) (PRC2/EZH2+/+ [1]; EZH2+/+ (Linear Fit)): 1.9 kcal/mol
- -T * ΔS°kon-koff (PRC2/EZH2+/+ [1]; EZH2+/+ (Linear Fit)): -7.51 kcal/mol
- ΔG°kon-koff (PRC2/EZH2+/+ [1]; EZH2+/+ (Linear Fit)): -12 kcal/mol
- ΔH°kon-koff (PRC2/EZH2+/+ [1]; EZH2+/+ (Linear Fit)): -4.49 kcal/mol
- Enthalpic Efficiency (kon) (PRC2/EZH2+/+ [1]; EZH2+/+ (Non-linear Fit)): 0.47 kcal/mol
- Enthalpic Efficiency (koff) (PRC2/EZH2+/+ [1]; EZH2+/+ (Non-linear Fit)): 1.3 kcal/mol
- -T * ΔS°kon-koff (PRC2/EZH2+/+ [1]; EZH2+/+ (Non-linear Fit)): -5.28 kcal/mol
- ΔG°kon-koff (PRC2/EZH2+/+ [1]; EZH2+/+ (Non-linear Fit)): -12.1 kcal/mol
- ΔH°kon-koff (PRC2/EZH2+/+ [1]; EZH2+/+ (Non-linear Fit)): -6.79 kcal/mol
- Ligand Efficiency - 0' enzyme:inhibitor pre-incubation EZH1 (PRC2/EZH1): 1.1
- Ligand Efficiency - 15' enzyme:inhibitor pre-incubation EZH1 (PRC2/EZH1): 1.1
- Ligand Efficiency - 60' enzyme:inhibitor pre-incubation EZH1 (PRC2/EZH1): 1.1
- IC50 (PRC2/EZH1; 0' enzyme:inhibitor pre-incubation, read-out: SPA Mean IC50 (M) - 0' enzyme:inhibitor pre-incubation EZH1): 3.1e-07 M
- IC50 (PRC2/EZH1; 15' enzyme:inhibitor pre-incubation, read-out: SPA Mean IC50 (M) - 15' enzyme:inhibitor pre-incubation EZH1): 2.9e-07 M
- IC50 (PRC2/EZH1; 60' enzyme:inhibitor pre-incubation, read-out: SPA Mean IC50 (M) - 60' enzyme:inhibitor pre-incubation EZH1): 2.9e-07 M
- binding driving force, polynomial van't Hoff analysis (PRC2/EZH2+/+ [2]): entropy-driven
- AUC (a.u.) ([3]; HCA H3K27 methylation washout pIC50 AUC over all incubation/washout times): 92.2 a.u.
- IC50 ([3]; incubation time 0.5 h, washout time 71.5 h): 7e-06 M
- IC50 ([3]; incubation time 1 h, washout time 71 h): 4.1e-06 M
- IC50 ([3]; incubation time 2 h, washout time 70 h): 2.9e-06 M
- IC50 ([3]; incubation time 4 h, washout time 68 h): 1.8e-06 M
- IC50 ([3]; incubation time 24 h, washout time 48 h): 1.6e-06 M
- IC50 ([3]; incubation time 48 h, washout time 24 h): 5.5e-07 M
- IC50 ([3]; incubation time 72 h, washout time 0 h): 4.6e-08 M
- Ligand Efficiency (PRC2/EZH2Y641N; EZH2Y641N (+ H3K27me3)): 1.6
- Ki (PRC2/EZH2Y641N; [4]): 1.35 nM
- Ligand Efficiency (PRC2/EZH2Y641N; EZH2Y641N (- H3K27me3)): 1.5
- Ki (PRC2/EZH2Y641N; [5]): 2.99 nM
